Experimental data taken from PubChem BioAssay (NCI).
Values joined by “and” are separate entries in the source; they are usually repeats but may differ in a detail not shown here. Equal values may be shown once.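 Results reflect a 48-hour exposure of cells in 96-well plates to compound at five concentrations. GI50: concentration for 50% inhibition of growth. TGI is the concentration that stops growth completely.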 Where a SMILES comes first, the peptide text is derived from it. Bridges are numbered along the chain shown (N, C = ends). [ ]: non-standard residue; d: D form. The star is where a group is joined. Phe(3,5-F2) = N[C@@H](Cc1cc(F)cc(F)c1)C(=O)O; Pro(4R-Me) = C[C@H]1CN[C@H](C(=O)O)C1; aThr = C[C@H](O)[C@H](N)C(=O)O; Pip = O=C(O)[C@@H]1CCCCN1; X7 = CCC/C=C/C=C/C(=O)*

Tested on: MDA-MB-468 breast
Test: NCI anticancer screen, dose series, 48 h

Structure (SMILES)	GI50	TGI
Cc1ccc([I+]c2ccc(C)cc2)cc1	0.264 µM	40 µM
CCN1C2=C(SC(=S)C1=C1SC(C(=O)c3ccccc3)=C(C(=O)c3ccccc3)S1)SC(=Nc1ccccc1)C2=O	> 50.4 µM	> 100 µM
COc1ccc(-c2nc(Nc3ccc(F)cc3)nc(Nc3ccc4c(c3)nc(C)n4Cc3ccccc3)n2)cc1	2.27 µM	7.22 µM
COc1ccc2c(c1)OC(N)=C(C#N)C2c1ccc(F)c(F)c1 (configuration not stated)	0.222 µM	3.56 µM
CC[n+]1c(/C=C/c2ccc(N3CCCC3)cc2)cccc1/C=C/c1ccc(N2CCCC2)cc1	0.0423 µM	0.196 µM
Nc1ncnc2occ(-c3ccc(NC(=O)Nc4cc(C(F)(F)F)ccc4F)cc3)c12	4.46 µM and 3.9 µM	12.4 µM and 11.8 µM
O=C1NC(=N[C@@H]2C[C@H]2c2ccccc2)S/C1=C\c1ccc2ncccc2c1	0.872 µM	5.85 µM
C#CCN(C)CCCOc1ccc(NCc2ccc(C(=O)NO)cc2)cc1Cl	1.7 µM	8.14 µM
COC(=O)Nc1nc2ccc(C(=O)C3CC3)cc2[nH]1	0.247 µM	1.48 µM
Cc1cc(C)c2c(=O)cc(-c3ccccc3)[nH]c2c1	3.79 µM	25.5 µM
O=C(/C=C/c1cccnc1)c1ccccc1	8.22 µM	22 µM
Nc1nc(N)c2cc(Sc3ccc(Cl)cc3)ccc2n1	1.15 µM	2.71 µM
CC(C)c1ccc2c(c1)CCC1C(C)(CN)CCCC21C (configuration not stated)	1.43 µM	2.76 µM
COc1ccc(/C=C/C(=O)c2ccc(B(O)O)cc2)cc1O	6.23 µM	18.4 µM
CC(C)[C@]12O[C@H]1[C@@H]1O[C@]13[C@]1(O[C@H]1C[C@H]1C4=C(CC[C@@]13C)C(=O)OC4)[C@@H]2OC(=O)OC(C)(C)C	0.0147 µM	0.0361 µM
COc1c(O)cc2c(c1CC=C(C)C)OC(=O)c1c(cc(O)c(CC=C(C)C)c1O)O2	4.19 µM	8.21 µM
Oc1c(CCl)cc(Cl)cc1Cc1cc(Cl)cc(Cc2cc(Cl)cc(CCl)c2O)c1O	3.28 µM	13.1 µM
O=C(NCCNc1nccc(-c2c(-c3ccc(F)cc3)nc3sccn23)n1)Nc1cccc(C(F)(F)F)c1	2.14 µM	7.46 µM
CCC/C=C/C=C/C(=O)N[C@@H](Cc1cc(F)cc(F)c1)C(=O)N[C@@H]1C(=O)N2CCC[C@H]2C(=O)N2CCCC[C@H]2C(=O)N[C@@H](C)C(=O)N2C[C@H](C)C[C@H]2C(=O)O[C@H]1C (X7-[Phe(3,5-F2)][aThr]P[Pip]A[Pro(4R-Me)]; ester 2-C)	0.271 µM	1.03 µM
NNC(=S)N/N=C/c1ccccn1	1.94 µM	5.59 µM
CO[C@@H]1[C@H](N(C)C(=O)c2ccccc2)C[C@@H]2O[C@]1(C)n1c3ccccc3c3c4c(c5c6ccccc6n2c5c31)C(=O)NC4=O	0.335 µM	> 100 µM
